Data: the NIST ThermoML archive (doi:10.1016/j.fluid.2011.11.026)
± gives the expanded uncertainty stated by the source.

Conditions: Liquid, Closed cell (Static) method

COC [dimethyl ether]
Conditions	vapor or sublimation pressure [kPa]
296.78 K	571.9 ± 1.2
303.46 K	690.2 ± 1.3
308.54 K	793.1 ± 1.5
312.26 K	875.3 ± 1.7
317.17 K	993.3 ± 1.8
322.08 K	1122 ± 2.1
327.08 K	1265.6 ± 2.3
332.09 K	1423.5 ± 2.6
337 K	1591.1 ± 2.9
341.97 K	1773.8 ± 3.2
347 K	1976.2 ± 3.5
351.89 K	2187.4 ± 3.9
356.91 K	2422.2 ± 4.2
361.94 K	2675.2 ± 4.7
366.96 K	2946.3 ± 5.1
371.84 K	3230.3 ± 5.6
376.91 K	3546.4 ± 6.1
379.82 K	3739 ± 6.4
382.88 K	3950.3 ± 6.8
385.83 K	4161.9 ± 7.1
387.81 K	4309.6 ± 7.4
389.81 K	4463.7 ± 7.6
391.86 K	4625.6 ± 7.9
393.81 K	4783 ± 8.1
395.74 K	4943.6 ± 8.4

FC(F)(F)C(F)(F)C(F)(F)C(F)(F)F [decafluorobutane]
Conditions	vapor or sublimation pressure [kPa]
263.15 K	72.7 ± 0.5
268.12 K	89.6 ± 0.5
273.09 K	109.4 ± 0.5
278 K	132.4 ± 0.6
282.99 K	159 ± 0.6
287.91 K	189.3 ± 0.7
292.97 K	225.4 ± 0.8
297.95 K	265.3 ± 0.8
302.9 K	310.2 ± 0.9
308.21 K	364.3 ± 1.1
312.88 K	417.8 ± 1.2
317.88 K	481.2 ± 1.4
323.22 K	556.4 ± 1.5
328.15 K	633.7 ± 1.7
332.91 K	716.1 ± 2
337.93 K	811 ± 2.2
342.91 K	913 ± 2.5
347.93 K	1025.8 ± 2.8
352.92 K	1149.2 ± 3.1
357.1 K	1261.3 ± 3.4
363.13 K	1437.8 ± 3.8
368.03 K	1594.1 ± 4.3
373.25 K	1775.9 ± 4.7
376.88 K	1912.1 ± 5.1
379.05 K	1997.7 ± 5.3
